# Experimental data published in patent US7396837B2, “Antitumoral analogs of lamellarins” (Pharma Mar, S.A.U., priority 2002, dated 2008).
# Columns and labels:
# Format in all cases: cell-based
# A-549 = assay: SRB colorimetric cell growth inhibition assay, A-549; settings: Homo sapiens, A549, A-549; for GI50: GI=growth inhibition, read-out: GI50 A-549; for CC50: LC=cell killing (cytotoxic effect), read-out: LC50 A-549; for IC (TGI): TGI=total growth inhibition (cytostatic effect), read-out: TGI A-549
# Summary of the method: (§1)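 Read-out: sulforhodamine B colorimetry of surviving cell mass after continued exposure of human tumour lines to sample. Values are means ± SD of three wells, expressed as GI, TGI or LC.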
# LoVo = assay: SRB colorimetric cell growth inhibition assay, LoVo; settings: Homo sapiens, LoVo; for GI50: GI=growth inhibition, read-out: GI50 LOVO; for CC50: LC=cell killing (cytotoxic effect), read-out: LC50 LOVO; for IC (TGI): TGI=total growth inhibition (cytostatic effect), read-out: TGI LOVO
# Summary of the method: as §1
# SK-MEL-28 = assay: SRB colorimetric cell growth inhibition assay, SK-MEL-28; settings: Homo sapiens, SK-MEL-28, MEL-28; for GI50: GI=growth inhibition, read-out: GI50 MEL-28; for CC50: LC=cell killing (cytotoxic effect), read-out: LC50 MEL-28; for IC (TGI): TGI=total growth inhibition (cytostatic effect), read-out: TGI MEL-28
# Summary of the method: as §1
# IGROV-ET = assay: SRB colorimetric cell growth inhibition assay, IGROV-ET (ET-743 resistant); settings: Homo sapiens, IGROV-ET; for GI50: GI=growth inhibition, read-out: GI50 IGROV-ET; for CC50: LC=cell killing (cytotoxic effect), read-out: LC50 IGROV-ET; for IC (TGI): TGI=total growth inhibition (cytostatic effect), read-out: TGI IGROV-ET
# Summary of the method: as §1
# SK-BR-3 = assay: SRB colorimetric cell growth inhibition assay, SK-BR-3; settings: Homo sapiens, SK-BR-3, SK-BR-3; for GI50: GI=growth inhibition, read-out: GI50 SK-BR-3; for CC50: LC=cell killing (cytotoxic effect), read-out: LC50 SK-BR-3; for IC (TGI): TGI=total growth inhibition (cytostatic effect), read-out: TGI SK-BR-3
# Summary of the method: as §1
# HeLa = assay: SRB colorimetric cell growth inhibition assay, HeLa; settings: Homo sapiens, HeLa; for GI50: GI=growth inhibition, read-out: GI50 HELA; for CC50: LC=cell killing (cytotoxic effect), read-out: LC50 HELA; for IC (TGI): TGI=total growth inhibition (cytostatic effect), read-out: TGI HELA
# Summary of the method: as §1
# HT-29 = assay: SRB colorimetric cell growth inhibition assay, HT-29; settings: Homo sapiens, HT-29, HT-29; for GI50: GI=growth inhibition, read-out: GI50 HT-29; for CC50: LC=cell killing (cytotoxic effect), read-out: LC50 HT-29; for IC (TGI): TGI=total growth inhibition (cytostatic effect), read-out: TGI HT-29
# Summary of the method: as §1
# LoVo-Dox = assay: SRB colorimetric cell growth inhibition assay, LoVo-Dox (MDR); settings: Homo sapiens, LOVO-DOX; for GI50: GI=growth inhibition, read-out: GI50 LOVO-DOX; for CC50: LC=cell killing (cytotoxic effect), read-out: LC50 LOVO-DOX; for IC (TGI): TGI=total growth inhibition (cytostatic effect), read-out: TGI LOVO-DOX
# Summary of the method: as §1
# DU-145 = assay: SRB colorimetric cell growth inhibition assay, DU-145; settings: Homo sapiens, DU-145, DU-145; for GI50: GI=growth inhibition, read-out: GI50 DU-145; for CC50: LC=cell killing (cytotoxic effect), read-out: LC50 DU-145; for IC (TGI): TGI=total growth inhibition (cytostatic effect), read-out: TGI DU-145
# Summary of the method: as §1
# K-562 = assay: SRB colorimetric cell growth inhibition assay, K-562; settings: Homo sapiens, K562, K-562; for GI50: GI=growth inhibition, read-out: GI50 K-562; for CC50: LC=cell killing (cytotoxic effect), read-out: LC50 K-562; for IC (TGI): TGI=total growth inhibition (cytostatic effect), read-out: TGI K-562
# Summary of the method: as §1
# LNCaP = assay: SRB colorimetric cell growth inhibition assay, LNCaP; settings: Homo sapiens, LNCaP, LN-caP; for GI50: GI=growth inhibition, read-out: GI50 LN-caP; for CC50: LC=cell killing (cytotoxic effect), read-out: LC50 LN-caP; for IC (TGI): TGI=total growth inhibition (cytostatic effect), read-out: TGI LN-caP
# Summary of the method: as §1
# HeLa-APL = assay: SRB colorimetric cell growth inhibition assay, HeLa-APL (aplidine resistant); settings: Homo sapiens, HELA-APL; for GI50: GI=growth inhibition, read-out: GI50 HELA-APL; for CC50: LC=cell killing (cytotoxic effect), read-out: LC50 HELA-APL; for IC (TGI): TGI=total growth inhibition (cytostatic effect), read-out: TGI HELA-APL
# Summary of the method: as §1
# PANC-1 = assay: SRB colorimetric cell growth inhibition assay, PANC-1; settings: Homo sapiens, PANC-1, PANC-1; for GI50: GI=growth inhibition, read-out: GI50 PANC-1; for CC50: LC=cell killing (cytotoxic effect), read-out: LC50 PANC-1; for IC (TGI): TGI=total growth inhibition (cytostatic effect), read-out: TGI PANC-1
# Summary of the method: as §1
# IGROV = assay: SRB colorimetric cell growth inhibition assay, IGROV; settings: Homo sapiens, IGROV; for GI50: GI=growth inhibition, read-out: GI50 IGROV; for CC50: LC=cell killing (cytotoxic effect), read-out: LC50 IGROV; for IC (TGI): TGI=total growth inhibition (cytostatic effect), read-out: TGI IGROV
# Summary of the method: as §1
smiles,measurement,setting,value
COc1cc(-c2c3c4cc(OC)c(O)cc4oc(=O)c3n3ccc4c([N+](=O)[O-])cccc4c23)ccc1O [Compound 53],GI50,A-549,5.66 µM
same,CC50,A-549,20.1 µM
same,IC (TGI),A-549,20.1 µM
same,GI50,LoVo,11.1 µM
same,CC50,LoVo,20.1 µM
same,IC (TGI),LoVo,20.1 µM
same,GI50,SK-MEL-28,4.03 µM
same,CC50,SK-MEL-28,20.1 µM
same,IC (TGI),SK-MEL-28,15.5 µM
same,GI50,IGROV-ET,20.1 µM
same,CC50,IGROV-ET,20.1 µM
same,IC (TGI),IGROV-ET,20.1 µM
same,GI50,SK-BR-3,1.99 µM
same,CC50,SK-BR-3,20.1 µM
same,IC (TGI),SK-BR-3,9.49 µM
same,GI50,HeLa,0.59 µM
same,CC50,HeLa,20.1 µM
same,IC (TGI),HeLa,12.3 µM
same,GI50,HT-29,2.17 µM
same,CC50,HT-29,20.1 µM
same,IC (TGI),HT-29,20.1 µM
same,GI50,LoVo-Dox,20.1 µM
same,CC50,LoVo-Dox,20.1 µM
same,IC (TGI),LoVo-Dox,20.1 µM
same,GI50,DU-145,4.53 µM
same,CC50,DU-145,20.1 µM
same,IC (TGI),DU-145,12.3 µM
same,GI50,K-562,10.3 µM
same,CC50,K-562,20.1 µM
same,IC (TGI),K-562,20.1 µM
same,GI50,LNCaP,4.01 µM
same,CC50,LNCaP,20.1 µM
same,IC (TGI),LNCaP,9.75 µM
same,GI50,HeLa-APL,20.1 µM
same,CC50,HeLa-APL,20.1 µM
same,IC (TGI),HeLa-APL,20.1 µM
same,GI50,PANC-1,1.03 µM
same,CC50,PANC-1,20.1 µM
same,IC (TGI),PANC-1,9.67 µM
same,GI50,IGROV,1.38 µM
same,CC50,IGROV,20.1 µM
same,IC (TGI),IGROV,20.1 µM
COc1cc(-c2c3c4cc(OC)c(OC(C)C)cc4oc(=O)c3n3ccc4c([N+](=O)[O-])cccc4c23)ccc1OC(C)C [Compound 54],GI50,A-549,2.85 µM
same,CC50,A-549,17.2 µM
same,IC (TGI),A-549,15.1 µM
same,GI50,LoVo,3.4 µM
same,CC50,LoVo,17.2 µM
same,IC (TGI),LoVo,8.94 µM
same,GI50,SK-MEL-28,1.53 µM
same,CC50,SK-MEL-28,17.2 µM
same,IC (TGI),SK-MEL-28,5.7 µM
same,GI50,IGROV-ET,6.64 µM
same,CC50,IGROV-ET,17.2 µM
same,IC (TGI),IGROV-ET,17.2 µM
same,GI50,SK-BR-3,1.05 µM
same,CC50,SK-BR-3,17.2 µM
same,IC (TGI),SK-BR-3,4.31 µM
same,GI50,HeLa,0.616 µM
same,CC50,HeLa,17.2 µM
same,IC (TGI),HeLa,2.71 µM
same,GI50,HT-29,1.52 µM
same,CC50,HT-29,17.2 µM
same,IC (TGI),HT-29,17.2 µM
same,GI50,LoVo-Dox,12.5 µM
same,CC50,LoVo-Dox,17.2 µM
same,IC (TGI),LoVo-Dox,17.2 µM
same,GI50,DU-145,2.88 µM
same,CC50,DU-145,17.2 µM
same,IC (TGI),DU-145,7.16 µM
same,GI50,K-562,3.76 µM
same,CC50,K-562,17.2 µM
same,IC (TGI),K-562,14.2 µM
same,GI50,LNCaP,1.71 µM
same,CC50,LNCaP,11.1 µM
same,IC (TGI),LNCaP,4.34 µM
same,GI50,HeLa-APL,3.83 µM
same,CC50,HeLa-APL,17.2 µM
same,IC (TGI),HeLa-APL,17.2 µM
same,GI50,PANC-1,0.711 µM
same,CC50,PANC-1,17.2 µM
same,IC (TGI),PANC-1,2.59 µM
same,GI50,IGROV,0.884 µM
same,CC50,IGROV,13.3 µM
same,IC (TGI),IGROV,4.02 µM
